Data published in patent publication US20030036184A1 (priority 2000, published 2003).

What was measured:
PDE7(101-450) = molecular target: T1, PDE7(101-450) (Homo sapiens, UniProt Q13946); assay: PDE assay for IC50 measurements (SPA, cell lysate enzyme); assay type: biochemical; details: for sensitivity of enzyme to inhibitor: PDE7(101-450) produced in Baculovirus or eucaryote
T1 construct: made in house; host or cells: CHO (EcRCHO) cells, transient transfection; crude lysate supernatant
Description: (§1) The cell lysates containing PDE7A1 (full length or the truncated forms) were used as enzyme source. PDE assays were performed in 96-well plates in a final volume of […] at pH 8 comprising: 2 μL of compound dissolved in DMSO at 8 different concentrations, 40 mM TRIS, 10 mM MgCl2, 50 nM [^3H]-cAMP (Amersham) and enzyme at the appropriate concentration. Plates were incubated for 10 min at 37° C. in a heater/shaker and stopped by addition of 20 μL Yttrium silicate beads (Scintillation Proximity Assay, Amersham). Enzyme activity was read on a Topcount reader (Packard). Substrate depletion never exceeded 15% of the initial amount. The given IC50s represent the concentration of compound leading to 50% inhibition of the cAMP hydrolysis versus control. They are calculated using a classical sigmoidal model with Hill slope fixed to 1.
(§2) The cell lysates containing recombinant PDE7A1 (full length or the truncated forms) were used as enzyme source. PDE assays were performed in 96-well plates in a final volume of 100 μL at pH 8 comprising: […] of compound dissolved in DMSO at 8 different concentrations, 40 mM TRIS, 10 mM MgCl2, 50 nM [^3H]-cAMP and enzyme at the appropriate concentration.
(§3) Plates were incubated for 10 min at 37° C. in a heater/shaker and stopped by addition of 20 μL Yttrium silicate beads (Scintillation Proximity Assay, Amersham).
(§4) Enzyme activity was determined by measuring the radioactivity on a Topcount reader (Packard).
(§5) Substrate depletion never exceeded 15% of the initial amount. The given IC50s represent the concentration of compound leading to 50% inhibition of the cAMP hydrolysis versus control. They are calculated using a classical sigmoidal model with Hill slope

PDE7(101-483) [1] = molecular target: T2, PDE7(101-483) (Homo sapiens, UniProt Q13946); assay: as above; assay type: biochemical
T2 construct: this catalytic fragment (101-482) fragment was co-expressed; made in house; host or cells: CHO (EcRCHO) cells, transient transfection; crude lysate supernatant
Description: as §1, §2, §3, §4, §5

[2] = molecular target: T3, recombinant full length PDE7A1 (Homo sapiens, UniProt Q13946); assay: as above; assay type: biochemical; details: for sensitivity of enzyme to inhibitor: full length PDE7A produced in Baculovirus or eucaryote
T3 construct: the full length PDE7A1 protein (1-483); made in house; host or cells: CHO (EcRCHO) cells, transient transfection, cytosol/lysate supernatant; Sf21/baculovirus also described
Description: as §1, §2, §3, §4, §5

PDE7A = PDE7A (Homo sapiens, UniProt Q13946); details: cited from earlier work
recombinant PDE7A1 = molecular target: T4, recombinant PDE7A1 (Homo sapiens, UniProt Q13946); assay: cAMP hydrolysis in cytosol extract of transfected CHO cells, with or without rolipram; assay type: biochemical; details: rolipram 10 μM
T4 construct: the full length PDE7A1 protein (1-483); made in house; host or cells: CHO (EcRCHO) cells, transient transfection, cytosol/lysate supernatant; Sf21/baculovirus also described
From the text: (§6) The reaction mixtures were then applied to these columns.

PDE7(101-483) [3] = molecular target: T2, PDE7(101-483); assay: cAMP hydrolysis in cytosol extract of transfected CHO cells, with rolipram; assay type: biochemical; details: truncated PDE7 construct 101-483 in CHO; rolipram at 10 μM
Description: Three days before transfection, CHO cells were plated at a density of 2×10^6 cells per 150 cm^2 flask. Cells were transfected with 20 μg of endotoxin free plasmid DNA using Lipofectamine following the manufacturers instructions (Gibco BRL, Gaithersburg, Md.). After incubation for 48 hours, cells were washed twice with phosphate buffered saline (PBS), trypsinized, harvested by centrifugation and resuspended in 300 μL of PDE extraction buffer (Bis Tris 20 mM (pH 6.5), EDTA 10 mM, DTT 2.5 M) supplemented with a mixture of protease inhibitors at a final concentration of 2 mM benzamidine, 2 μg/ml soybean trypsin inhibitor, 50 μM PMSF and 100 μg/ml bacitracin. Cells were sonicated, centrifuged for 20 minutes at 14,000 g and the resultant supernatants were analyzed for cAMP phosphodiesterase activity.
Phosphodiesterase activities were assayed using a modification of the method described by Smith and collaborators (Manganellio et al., 1991) using the observation that 5′-nucleotides bind very strongly to aluma while the cyclic nucleotides are readily eluted at neutral or slightly alkaline pH. Assays were performed in 96 well plates at 37° C. in a total volume of 200 μl. […] The separated [^3H] cAMP was back-corrected for recovery using the separated and non-separated [^14C] values and expressed as a fraction of the total [^3H] cAMP to give the amount of the substrate hydrolyzed. […]

[4] = molecular target: PDE7 mutant corresponding to the amino acids sequence 101-483 of the full length human PDE7A1 (human) (UniProt Q13946); assay: cell-based or functional assay
[5] = PDE assay for Km measurements; assay type: biochemical; details: Km for cAMP
Description: The cell lysates containing PDE7A1 (full length or the truncated forms) were used as enzyme source. […] Substrate concentrations spanned a 15 nM-750 nM range. Plates were incubated for 10 min at 37° C. in a heater/shaker and stopped by addition of 20 μL Yttrium silicate beads (Scintillation Proximity Assay, Amersham). Enzyme activity was read on a Topcount reader (Packard). Substrate depletion never exceeded 15% of the initial amount. Saturation curves were then fitted with a classical sigmoidal model, Hill slope fixed to 1.
By performing kinetics studies and Km measurements as described above, the respective Km values of the full length PDE7A1 and the truncated 101-450 PDE7A1 recombinant proteins expressed in CHO cells have been determined and are shown in Table 1 below.
The Km for cAMP of the PDE7(101-450), PDE7(101-483), have been measured and compared to those of endogenously expressed PDE7 in human lymphocyte cell line (Molt4) and the full length wild type recombinant PDE7A1 (Table 1).

[6] = PDE catalytic activity of full length and truncated PDE7A1 expressed in CHO cells; assay type: biochemical; details: for level of PDE activity after expression in CHO cells (in words): cell cytosol, compared with full length PDE7A1 or PDE7Δ100; for increase in PDE catalytic activity compared to full length PDE7A1/PDE7A2 / phosphodiesterase catalytic activity relative to full length enzyme: expressed in CHO cells
Description: as §6
The resultant PDE activity was measured and compared to that for the full length coding region of PDE7A1 and non-transfected cells. […] The first 100 amino acids seem to have an influence on the catalytic activity of the expressed PDE7 enzyme.

[7] = molecular target: T5, catalytic fragment (101-482) (Homo sapiens, UniProt Q13946); assay: Co-expression of the first 100 N-terminal amino acids with the catalytic fragment in CHO cells, PDE activity; assay type: cell-based
T5 construct: this catalytic fragment (101-482) fragment was co-expressed; 6xHis (N); expressed in transfected cells; host or cells: CHO cells co-transfected (lipofectamine) with two plasmids; PDE activity measured
Description: This part of the protein has been proposed to act as an auto-inhibitory domain. To establish if overexpression of the first 100 amino acids can inhibit PDE7 activity of the catalytic site, this catalytic fragment (101-482) fragment was co-expressed with the fragment 1-101 of a separate plasmid or with the plasmid pcDNA3 without this insert (negative control). Cells were transfected with 15 μg of each plasmid DNA. The catalytic site activity was inhibited of only around 40-50% in presence of fragment 1-101. (FIG. 12) The effect dose response has been checked to evaluate the involvement of the first 100 amino in PDE7 activity of the catalytic domain.
A dose effect curve has been done in the same coexpression conditions. 15 μg of the catalytic fragment (101-482) was coexpressed with increasing quantity of the fragment 1-101 of a separate plasmid. The DNA quantity was normalized for each transfection using an empty vector. (FIG. 13) A effect dose response of 100 N-terminal amino acids on PDE7 activity was observed (n=3). The catalytic domain activity was inhibited until 60% in presence of the fragment 1-100 at the highest concentration.

T3 sequence (Q13946 whole entry): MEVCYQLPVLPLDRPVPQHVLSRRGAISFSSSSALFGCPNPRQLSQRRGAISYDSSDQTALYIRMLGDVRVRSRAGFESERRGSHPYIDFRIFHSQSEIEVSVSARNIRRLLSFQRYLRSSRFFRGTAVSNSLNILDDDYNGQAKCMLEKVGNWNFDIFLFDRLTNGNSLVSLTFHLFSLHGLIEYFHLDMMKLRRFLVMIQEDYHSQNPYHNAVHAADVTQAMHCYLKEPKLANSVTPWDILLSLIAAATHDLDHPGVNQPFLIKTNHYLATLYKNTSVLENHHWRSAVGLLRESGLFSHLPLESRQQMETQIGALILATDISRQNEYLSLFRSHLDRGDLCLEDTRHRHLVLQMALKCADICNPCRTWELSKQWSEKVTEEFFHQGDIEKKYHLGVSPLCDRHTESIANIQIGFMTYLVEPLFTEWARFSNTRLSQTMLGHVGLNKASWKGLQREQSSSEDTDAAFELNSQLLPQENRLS
PDE7A, sequence (Q13946 whole entry, species assumed): as the sequence (Q13946 whole entry) above
T4 sequence (Q13946 whole entry): as above

CC(C)Cn1c(=O)n(C)c(=O)c2[nH]cnc21 [IBMX, 3 isobutyl-1-methyl xanthine]
IC50 (PDE7(101-450); PDE7(101-450)): 13 to 14 µM | IC50 (PDE7(101-483) [1]): 13 to 14 µM | IC50 ([2]; recombinant full length PDE7A1): 13 to 14 µM

CN/C(=N\c1ccc(C2=NNC(=O)CC2C)cc1)NC#N (stereo not drawn) [SKF-94836]
sensitivity of enzyme to inhibitor (PDE7(101-450)): insensitive | sensitivity of enzyme to inhibitor [2]: insensitive | sensitivity of PDE7A to standard selective inhibitors of other PDE families (PDE7A): insensitivity

CCOC(=O)C1=C[C@]2(CC)CCCN3CCc4c(n1c1ccccc41)[C@@H]32 [Vinpocetin]
sensitivity of enzyme to inhibitor (PDE7(101-450)): insensitive | sensitivity of enzyme to inhibitor [2]: insensitive | sensitivity of PDE7A to standard selective inhibitors of other PDE families (PDE7A): insensitivity

CCCOc1ccccc1-c1nc2nn[nH]c2c(=O)[nH]1 [Zaprinast]
sensitivity of enzyme to inhibitor (PDE7(101-450)): insensitive | sensitivity of enzyme to inhibitor [2]: insensitive | sensitivity of PDE7A to standard selective inhibitors of other PDE families (PDE7A): insensitivity

Cc1[nH]c(=O)c(C#N)cc1-c1ccncc1 [milrinone]
sensitivity of PDE7A to standard selective inhibitors of other PDE families (PDE7A): insensitivity

COc1ccc(C2CNC(=O)C2)cc1OC1CCCC1 (stereo not drawn) [rolipram]
sensitivity of enzyme to inhibitor (PDE7(101-450)): insensitive | sensitivity of enzyme to inhibitor [2]: insensitive | sensitivity of increase in cAMP activity above basal to rolipram (recombinant PDE7A1): insensitive | sensitivity of PDE activity to rolipram (PDE7(101-483) [3]): insensitive

first N-terminal 100 amino acids of the full length human PDE7A1 (from UniProt Q13946 1-100)
PDE7 catalytic domain activity in CHO cells, 15 µg catalytic fragment plasmid with increasing quantity of fragment 1-101 plasmid, percent inhibition at the highest concentration [4]: 60% | PDE7 catalytic site activity in lysates of co-transfected CHO cells (15 µg of each plasmid), percent inhibition [4]: 40 to 50%

B1: PDE7Δ100: human PDE7A1 construct which lacks the first 100 amino acids; positions 45-427 of SEQ ID No1 (protein)
chain: VSVSARNIRRLLSFQRYLRSSRFFRGTAVSNSLNILDDDYNGQAKCMLEKVGNWNFDIFLFDRLTNGNSLVSLTFHLFSLHGLIEYFHLDMMKLRRFLVMIQEDYHSQNPYHNAVHAADVTQAMHCYLKEPKLANSVTPWDILLSLIAAATHDLDHPGVNQPFLIKTNHYLATLYKNTSVLENHHWRSAVGLLRESGLFSHLPLESRQQMETQIGALILATDISRQNEYLSLFRSHLDRGDLCLEDTRHRHLVLQMALKCADICNPCRTWELSKQWSEKVTEEFFHQGDIEKKYHLGVSPLCDRHTESIANIQIGFMTYLVEPLFTEWARFSNTRLSQTMLGHVGLNKASWKGLQREQSSSEDTDAAFELNSQLLPQENRLS
modifications: left off: small tags and cut ends
Km ([5]; Table 1): 0.052 µM | increase in PDE catalytic activity compared to mock transfected cells ([6]; CHO cells): 8 fold | level of PDE activity after expression in CHO cells (in words) [6]: Highest levels of PDE activity | increase in PDE catalytic activity compared to full length PDE7A1/PDE7A2 [6]: 15 fold | phosphodiesterase catalytic activity relative to full length enzyme [6]: about 15 times

B2: PDE7A;101-450: truncated human PDE7A1, amino acids 101-450; positions 45-394 of SEQ ID No1 (protein, listed as Homo sapiens)
chain: VSVSARNIRRLLSFQRYLRSSRFFRGTAVSNSLNILDDDYNGQAKCMLEKVGNWNFDIFLFDRLTNGNSLVSLTFHLFSLHGLIEYFHLDMMKLRRFLVMIQEDYHSQNPYHNAVHAADVTQAMHCYLKEPKLANSVTPWDILLSLIAAATHDLDHPGVNQPFLIKTNHYLATLYKNTSVLENHHWRSAVGLLRESGLFSHLPLESRQQMETQIGALILATDISRQNEYLSLFRSHLDRGDLCLEDTRHRHLVLQMALKCADICNPCRTWELSKQWSEKVTEEFFHQGDIEKKYHLGVSPLCDRHTESIANIQIGFMTYLVEPLFTEWARFSNTRLSQTMLGHVGLNKAS
Km [5]: 0.07 µM | Km ([5]; Table 1): 0.074 µM | level of PDE activity after expression in CHO cells (in words) [6]: equivalent to that observed for PDE7Δ100 | increase in PDE catalytic activity compared to full length PDE7A1/PDE7A2 [6]: about 15 fold | phosphodiesterase catalytic activity relative to full length enzyme [6]: about 15 times

B3: PDE7A;101-420: truncated human PDE7A1, amino acids 101-420 (protein, UniProt Q13946 101-420, looked up, fragment)
chain: VSVSARNIRRLLSFQRYLRSSRFFRGTAVSNSLNILDDDYNGQAKCMLEKVGNWNFDIFLFDRLTNGNSLVSLTFHLFSLHGLIEYFHLDMMKLRRFLVMIQEDYHSQNPYHNAVHAADVTQAMHCYLKEPKLANSVTPWDILLSLIAAATHDLDHPGVNQPFLIKTNHYLATLYKNTSVLENHHWRSAVGLLRESGLFSHLPLESRQQMETQIGALILATDISRQNEYLSLFRSHLDRGDLCLEDTRHRHLVLQMALKCADICNPCRTWELSKQWSEKVTEEFFHQGDIEKKYHLGVSPLCDRHTESIANIQIGFMTYL
modifications: PDE7A1
level of PDE activity after expression in CHO cells (in words) [6]: no detectable increase

B4: fragment 1-101: first N-terminal 100 amino acids of the full length human PDE7A1 (protein, UniProt Q13946 1-100, looked up, fragment)
chain: MEVCYQLPVLPLDRPVPQHVLSRRGAISFSSSSALFGCPNPRQLSQRRGAISYDSSDQTALYIRMLGDVRVRSRAGFESERRGSHPYIDFRIFHSQSEIE
modifications: PDE7A1
notes: first N-terminal 100 amino acids of the full length human PDE7A1
inhibition of catalytic site activity ([7]; co-expression, 15 μg of each plasmid DNA): 40-50% | inhibition of catalytic domain activity ([7]; dose effect curve, fragment at the highest concentration, n=3): ≤ 60%

B5: PDE7A;101-430: truncated human PDE7A1, amino acids 101-430 (protein, UniProt Q13946 101-430, looked up, fragment)
chain: VSVSARNIRRLLSFQRYLRSSRFFRGTAVSNSLNILDDDYNGQAKCMLEKVGNWNFDIFLFDRLTNGNSLVSLTFHLFSLHGLIEYFHLDMMKLRRFLVMIQEDYHSQNPYHNAVHAADVTQAMHCYLKEPKLANSVTPWDILLSLIAAATHDLDHPGVNQPFLIKTNHYLATLYKNTSVLENHHWRSAVGLLRESGLFSHLPLESRQQMETQIGALILATDISRQNEYLSLFRSHLDRGDLCLEDTRHRHLVLQMALKCADICNPCRTWELSKQWSEKVTEEFFHQGDIEKKYHLGVSPLCDRHTESIANIQIGFMTYLVEPLFTEWAR
modifications: PDE7A1
level of PDE activity after expression in CHO cells (in words) [6]: no detectable increase
